Source: ChEMBL document CHEMBL4376805, “Plasmodium Purine Metabolism and Its Inhibition by Nucleoside and Nucleotide Analogues” (J Med Chem, 2019)

Assays:
[1] = molecular target: GMP synthase [glutamine-hydrolyzing] (Homo sapiens, UniProt P49915)
Description: Inhibition of human GMP synthase

[2] = system: Plasmodium falciparum; assay: Antimalarial activity against Plasmodium falciparum 3D7 assessed as reduction in parasite growth incubated for 48 hrs by Giemsa-staining counting based microscopic analysis; type: functional, organism-based; details: 3D7, 48 h
[3] = molecular target: T1, GMP synthase [glutamine-hydrolyzing] (Plasmodium falciparum) (UniProt Q8IJR9); assay: Inhibition of Plasmodium falciparum N-terminal His-tagged GMP synthase expressed in Escherichia coli AT2465 assessed as reduction in NADH formation incubated at 0.5 mM for 20 mins by spectrophotometric analysis relative to control
T1 sequence (whole entry): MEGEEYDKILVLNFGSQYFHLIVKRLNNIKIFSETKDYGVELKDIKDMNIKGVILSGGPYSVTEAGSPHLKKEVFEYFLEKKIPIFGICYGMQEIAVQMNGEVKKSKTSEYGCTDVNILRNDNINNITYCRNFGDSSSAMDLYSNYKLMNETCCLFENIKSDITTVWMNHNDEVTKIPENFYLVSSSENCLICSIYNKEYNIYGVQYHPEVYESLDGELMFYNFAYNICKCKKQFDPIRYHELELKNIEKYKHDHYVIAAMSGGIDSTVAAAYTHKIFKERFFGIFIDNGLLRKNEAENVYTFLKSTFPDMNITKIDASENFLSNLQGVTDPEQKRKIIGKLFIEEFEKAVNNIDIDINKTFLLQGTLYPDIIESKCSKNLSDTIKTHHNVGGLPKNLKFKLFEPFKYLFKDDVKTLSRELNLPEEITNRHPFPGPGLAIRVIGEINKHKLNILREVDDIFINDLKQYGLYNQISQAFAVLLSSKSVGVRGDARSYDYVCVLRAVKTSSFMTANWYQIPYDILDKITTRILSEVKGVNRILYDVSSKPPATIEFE

[4] = molecular target: T2, Hypoxanthine-guanine phosphoribosyltransferase (Homo sapiens, UniProt P00492); assay: Inhibition of human HGPRT assessed as inhibitor constant for enzyme-inhibitor complex formation using [5'-14C]IMP as substrate by scintillation counting method
T2 sequence (P00492 whole entry): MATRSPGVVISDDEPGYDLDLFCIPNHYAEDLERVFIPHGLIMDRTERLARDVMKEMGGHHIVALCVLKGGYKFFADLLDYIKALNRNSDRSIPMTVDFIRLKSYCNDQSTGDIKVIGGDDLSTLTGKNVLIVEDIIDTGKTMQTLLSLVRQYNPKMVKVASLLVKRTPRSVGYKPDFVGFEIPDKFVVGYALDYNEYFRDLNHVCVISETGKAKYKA

[5] = Inhibition of Plasmodium falciparum HGXPRT expressed in Escherichia coli BL21 (DE3) assessed as inhibitor constant for enzyme-inhibitor-substrate complex formation using [5'-14C]IMP as substrate by scintillation counting method

Sequence of GMP synthase [glutamine-hydrolyzing] (P49915 whole entry): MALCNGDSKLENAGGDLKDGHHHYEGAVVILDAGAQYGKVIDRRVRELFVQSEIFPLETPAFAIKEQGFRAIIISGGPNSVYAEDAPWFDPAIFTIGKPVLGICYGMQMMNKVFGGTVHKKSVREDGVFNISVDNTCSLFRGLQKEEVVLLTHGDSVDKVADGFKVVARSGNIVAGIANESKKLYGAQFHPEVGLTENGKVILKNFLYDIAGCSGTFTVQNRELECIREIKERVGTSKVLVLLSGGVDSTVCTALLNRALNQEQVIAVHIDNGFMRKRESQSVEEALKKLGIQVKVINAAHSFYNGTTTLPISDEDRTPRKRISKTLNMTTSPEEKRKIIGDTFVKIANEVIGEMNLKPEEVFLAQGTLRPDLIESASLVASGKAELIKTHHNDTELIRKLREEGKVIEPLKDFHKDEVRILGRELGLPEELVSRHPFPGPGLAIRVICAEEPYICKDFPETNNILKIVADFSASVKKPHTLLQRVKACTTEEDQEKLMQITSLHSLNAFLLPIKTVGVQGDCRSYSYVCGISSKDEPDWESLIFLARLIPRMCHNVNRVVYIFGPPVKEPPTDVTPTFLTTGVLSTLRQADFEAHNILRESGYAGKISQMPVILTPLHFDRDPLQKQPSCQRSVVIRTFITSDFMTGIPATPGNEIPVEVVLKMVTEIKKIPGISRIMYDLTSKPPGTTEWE

C=C1O[C@@](CO)(n2cnc3c(N)ncnc32)[C@H](O)[C@@H]1O [DECOYININE]
IC50 [1]: 46.5 µM

Nc1ncnc2c1ncn2[C@]1(CO)O[C@H](CO)[C@@H](O)[C@H]1O [PSICOFURANINE]
IC50 [2]: 300 µM
inhibition [3]: 25%

Nc1nc2c([C@@H]3N[C@H](COP(=O)(O)O)[C@@H](O)[C@H]3O)c[nH]c2c(=O)[nH]1
Ki [4]: 0.056 µM
Ki [5]: 0.014 µM
